Reference: patent US20210078988A1, “MODULATORS OF INDOLEAMINE 2,3-DIOXYGENASE” (GLAXOSMITHKLINE INTELLECTUAL PROPERTY DEVELOPMENT LIMITED, priority 2017, published 2021)

Target: T1, indoleamine 2, 3-dioxygenase (IDO1) (Homo sapiens, UniProt P14902)
T1 construct: human peripheral blood mononuclear cells (PBMC) (PB003F; host or cells: human PBMC stimulated with IFN-gamma and LPS
Experiment: PBMC IDO1 assay (kynurenine detection via mass spectrometry)
Format: cell-based
Settings: human PBMC stimulated with IFN-γ and LPS, 2 days, kynurenine by mass spectrometry; read-out: IDO1 PBMC pIC50 (converted)
Procedure: Compounds of the present invention were tested via high-throughput cellular assays utilizing detection of kynurenine via mass spectrometry and cytotoxicity as end-points. For the mass spectrometry and cytotoxicity assays, human peripheral blood mononuclear cells (PBMC) (PB003F; AIICells®, Alameda, Calif.) were stimulated with human interferon-γ (IFN-γ) (Sigma-Aldrich Corporation, St. Louis, Mo.) and lipopolysaccharide from Salmonella minnesota (LPS) (Invivogen, San Diego, Calif.) to induce the expression of indoleamine 2, 3-dioxygenase (IDO1). Compounds with IDO1 inhibitory properties decreased the amount of kynurenine produced by the cells via the tryptophan catabolic pathway. Cellular toxicity due to the effect of compound treatment was measured using CellTiter-Glo® reagent (CTG) (Promega Corporation, Madison, Wis.), which is based on luminescent detection of ATP, an indicator of metabolically active cells.
In preparation for the assays, test compounds were serially diluted 3-fold in DMSO from a typical top concentration of 5 mM and plated at 0.5 μL in 384-well, polystyrene, clear bottom, tissue culture treated plates with lids (Greiner Bio-One, Kremsmunster, Austria) to generate 11-point dose response curves. Low control wells (0% kynurenine or 100% cytotoxicity) contained either 0.5 μL of DMSO in the presence of unstimulated (-IFN-γ/-LPS) PBMCs for the mass spectrometry assay or 0.5 μL of DMSO in the absence of cells for the cytotoxicity assay, and high control wells (100% kynurenine or 0% cytotoxicity) contained 0.5 μL of DMSO in the presence of stimulated (+IFN-γ/+LPS) PBMCs for both the mass spectrometry and cytotoxicity assays.
Frozen stocks of PBMCs were washed and recovered in RPMI 1640 medium (Thermo Fisher Scientific, Inc., Waltham, Mass.) supplemented with 10% v/v heat-inactivated fetal bovine serum (FBS) (Thermo Fisher Scientific, Inc., Waltham, Mass.), and 1× penicillin-streptomycin antibiotic solution (Thermo Fisher Scientific, Inc., Waltham, Mass.). The cells were diluted to 1,000,000 cells/mL in the supplemented RPMI 1640 medium. 50 μL of either the cell suspension, for the mass spectrometry assay, or medium alone, for the cytotoxicity assay, were added to the low control wells, on the previously prepared 384-well compound plates, resulting in 50,000 cells/well or 0 cells/well respectively. IFN-γ and LPS were added to the remaining cell suspension at final concentrations of 100 ng/ml and 50 ng/ml respectively, and 50 μL of the stimulated cells were added to all remaining wells on the 384-well compound plates. The plates, with lids, were then placed in a 37° C., 5% CO2 humidified incubator for 2 days.
Following incubation, the 384-well plates were removed from the incubator and allowed to equilibrate to room temperature for 30 minutes. For the cytotoxicity assay, CellTiter-Glo® was prepared according to the manufacturer's instructions, and 40 μL were added to each plate well. After a twenty minute incubation at room temperature, luminescence was read on an EnVision® Multilabel Reader (PerkinElmer Inc., Waltham, Mass.). For the mass spectrometry assay, 10 μL of supernatant from each well of the compound-treated plates were added to 40 μL of acetonitrile, containing 10 μM of an internal standard for normalization, in 384-well, polypropylene, V-bottom plates (Greiner Bio-One, Kremsmunster, Austria) to extract the organic analytes. Following centrifugation at 2000 rpm for 10 minutes, 10 μL from each well of the acetonitrile extraction plates were added to 90 μL of sterile, distilled H2O in 384-well, polypropylene, V-bottom plates for analysis of kynurenine and the internal standard on the RapidFire 300 (Agilent Technologies, Santa Clara, Calif.) and 4000 QTRAP MS (SCIEX, Framingham, Mass.). MS data were integrated using Agilent Technologies' RapidFire Integrator software, and data were normalized for analysis as a ratio of kynurenine to the internal standard. […]

T1 sequence (P14902 whole entry): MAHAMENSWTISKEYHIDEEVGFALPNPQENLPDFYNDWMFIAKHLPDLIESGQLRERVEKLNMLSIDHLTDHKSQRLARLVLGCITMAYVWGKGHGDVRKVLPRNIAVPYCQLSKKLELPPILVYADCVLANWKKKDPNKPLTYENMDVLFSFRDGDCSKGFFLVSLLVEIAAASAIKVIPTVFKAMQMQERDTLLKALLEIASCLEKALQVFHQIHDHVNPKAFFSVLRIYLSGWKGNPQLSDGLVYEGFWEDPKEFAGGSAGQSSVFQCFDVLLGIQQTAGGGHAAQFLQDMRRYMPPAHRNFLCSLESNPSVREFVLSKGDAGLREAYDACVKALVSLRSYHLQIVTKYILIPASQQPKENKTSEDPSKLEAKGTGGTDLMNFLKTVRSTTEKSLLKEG

CCc1ccc(C(=O)NC(CC2CCN(C(=O)OC(C)(C)C)CC2)c2ccccc2)s1 (stereo not drawn) [Example 1, tert-butyl 4-(2-(5-ethylthiophene-2-carboxamido)-2-phenylethyl)piperidine-1-carboxylate]
IC50: 7.94 nM

CC(C)(C)OC(=O)N1CCC(CC(NC(=O)c2ccc(Br)s2)c2ccccc2)CC1 (stereo not drawn) [Example 2, tert-butyl 4-(2-(5-bromothiophene-2-carboxamido)-2-phenylethyl)piperidine-1-carboxylate]
IC50: 7.94 nM

CC(C)(C)OC(=O)N1CCC(CC(NC(=O)c2ccc(Cl)s2)c2ccccc2)CC1 (stereo not drawn) [Example 3, tert-butyl 4-(2-(5-chlorothiophene-2-carboxamido)-2-phenylethyl)piperidine-1-carboxylate]
IC50: 10 nM

C#Cc1ccc(C(=O)NC(CC2CCN(C(=O)OC(C)(C)C)CC2)c2ccccc2)s1 (stereo not drawn) [Example 4, tert-butyl 4-(2-(5-ethynylthiophene-2-carboxamido)-2-phenylethyl)piperidine-1-carboxylate]
IC50: 3.98 nM

C#Cc1ccc(C(=O)NC(CC2CCN(C(=O)OC(C)(C)C)CC2)c2ccccc2)cc1 (stereo not drawn) [Example 5, tert-butyl 4-(2-(4-ethynylbenzamido)-2-phenylethyl)piperidine-1-carboxylate]
IC50: 7.94 nM

C#Cc1ccc(C(=O)NC(CC2CCN(C(=O)OC(C)(C)C)CC2)c2ccccc2)cc1F (stereo not drawn) [Example 6, tert-butyl 4-(2-(4-ethynyl-3-fluorobenzamido)-2-phenylethyl)piperidine-1-carboxylate]
IC50: 10 nM

CCOC(=O)N1CCC(CC(NC(=O)c2ccc(Cl)s2)C2CC2)CC1 (stereo not drawn) [Example 7, ethyl 4-(2-(5-chlorothiophene-2-carboxamido)-2-cyclopropylethyl)piperidine-1-carboxylate]
IC50: 6.31 nM

CC(C)(C)OC(=O)N1CCC(C[C@H](NC(=O)c2ccc(Cl)s2)C2CC2)CC1 [Example 8, (S)-tert-butyl 4-(2-(5-chlorothiophene-2-carboxamido)-2-cyclopropylethyl)piperidine-1-carboxylate]
IC50: 6.31 nM

Cc1ccc(C(=O)N[C@@H](CC2CCN(C(=O)OC(C)(C)C)CC2)C2CC2)s1 [Example 9, (S)-tert-butyl 4-(2-cyclopropyl-2-(5-methylthiophene-2-carboxamido)ethyl)piperidine-1-carboxylate]
IC50: 5.01 nM

CCc1ccc(C(=O)N[C@@H](CC2CCN(C(=O)OC(C)(C)C)CC2)C2CC2)s1 [Example 10, (S)-tert-butyl 4-(2-cyclopropyl-2-(5-ethylthiophene-2-carboxamido)ethyl)piperidine-1-carboxylate]
IC50: 5.01 nM

CCOC(=O)N1CCC(C[C@H](NC(=O)c2ccc(C)s2)C2CC2)CC1 [Example 11, (S)-ethyl 4-(2-cyclopropyl-2-(5-methylthiophene-2-carboxamido)ethyl)piperidine-1-carboxylate]
IC50: 5.01 nM

CCOC(=O)N1CCC(C[C@H](NC(=O)c2ccc(Cl)s2)C2CC2)CC1 [Example 12, ethyl (S)-4-(2-(5-chlorothiophene-2-carboxamido)-2-cyclopropylethyl)piperidine-1-carboxylate]
IC50: 3.16 nM

COC(=O)N1CCC(C[C@H](NC(=O)c2ccc(Cl)s2)C2CC2)CC1 [Example 13, (S)-methyl 4-(2-(5-chlorothiophene-2-carboxamido)-2-cyclopropylethyl)piperidine-1-carboxylate]
IC50: 7.94 nM

CC(C)OC(=O)N1CCC(C[C@H](NC(=O)c2ccc(Cl)s2)C2CC2)CC1 [Example 14, isopropyl (S)-4-(2-(5-chlorothiophene-2-carboxamido)-2-cyclopropylethyl)piperidine-1-carboxylate]
IC50: 3.98 nM

COc1ccc(C(CC2CCN(C(=O)OC(C)(C)C)CC2)NC(=O)c2ccc(Cl)s2)cn1 (stereo not drawn) [Example 15, tert-butyl 4-(2-(5-chlorothiophene-2-carboxamido)-2-(6-methoxypyridin-3-yl)ethyl)piperidine-1-carboxylate]
IC50: 3.98 nM

COc1ccc([C@H](CC2CCN(C(=O)OC(C)(C)C)CC2)NC(=O)c2ccc(Cl)s2)cn1 [Example 16, tert-butyl (S)-4-(2-(5-chlorothiophene-2-carboxamido)-2-(6-methoxypyridin-3-yl)ethyl)piperidine-1-carboxylate]
IC50: 0.794 nM

COc1ccc([C@H](CC2CCN(C(=O)OC(C)(C)C)CC2)NC(=O)c2ccc(F)cc2)cn1 [Example 17, tert-butyl (S)-4-(2-(4-fluorobenzamido)-2-(6-methoxypyridin-3-yl)ethyl)piperidine-1-carboxylate]
IC50: 7.94 nM

CC(C)CC(CC1CCN(C(=O)OC(C)(C)C)CC1)NC(=O)c1ccc(Cl)s1 (stereo not drawn) [Example 18, tert-butyl 4-(2-(5-chlorothiophene-2-carboxamido)-4-methylpentyl)piperidine-1-carboxylate]
IC50: 6.31 nM

COc1ccc([C@H](CC2CCN(C(=O)OC(C)(C)C)CC2)NC(=O)c2ccc(Cl)cc2)cn1 [Example 19, tert-butyl (S)-4-(2-(4-chlorobenzamido)-2-(6-methoxypyridin-3-yl)ethyl)piperidine-1-carboxylate]
IC50: 3.98 nM

COc1ccc([C@H](CC2CCN(C(=O)OC(C)(C)C)CC2)NC(=O)c2ccc(C)s2)cn1 [Example 20, tert-butyl(S)-4-(2-(6-methoxypyridin-3-yl)-2-(5-methylthiophene-2-carboxamido)ethyl)piperidine-1-carboxylate]
IC50: 2 nM

COc1ccc([C@H](CC2CCN(C(=O)OC(C)C)CC2)NC(=O)c2ccc(Cl)s2)cn1 [Example 21, isopropyl (S)-4-(2-(5-chlorothiophene-2-carboxamido)-2-(6-methoxypyridin-3-yl)ethyl)piperidine-1-carboxylate]
IC50: 1.58 nM

COc1ccc([C@H](CC2CCN(C(=O)OC(C)C)CC2)NC(=O)c2ccc(Cl)cc2)cn1 [Example 22, isopropyl (S)-4-(2-(4-chlorobenzamido)-2-(6-methoxypyridin-3-yl)ethyl)piperidine-1-carboxylate]
IC50: 2 nM

COc1ccc([C@H](CC2CCN(C(=O)OC(C)(C)C)CC2)NC(=O)c2ccc(Br)cc2)cn1 [Example 23, tert-butyl (S)-4-(2-(4-bromobenzamido)-2-(6-methoxypyridin-3-yl)ethyl)piperidine-1-carboxylate]
IC50: 3.98 nM

CCc1ccc(C(=O)N[C@@H](CC2CCN(C(=O)OC(C)(C)C)CC2)c2ccc(OC)nc2)s1 [Example 24, tert-butyl (S)-4-(2-(5-ethylthiophene-2-carboxamido)-2-(6-methoxypyridin-3-yl)ethyl)piperidine-1-carboxylate]
IC50: 3.16 nM

COc1ccc([C@H](CC2CCN(C(=O)OC(C)(C)C)CC2)NC(=O)c2ccc(F)s2)cn1 [Example 25, tert-butyl (S)-4-(2-(5-fluorothiophene-2-carboxamido)-2-(6-methoxypyridin-3-yl)ethyl)piperidine-1-carboxylate]
IC50: 3.16 nM

Cc1ccc(C(=O)NC(CC(C)C)CC2CCN(C(=O)OC(C)(C)C)CC2)s1 (stereo not drawn) [Example 26, tert-butyl 4-(4-methyl-2-(5-methylthiophene-2-carboxamido)pentyl)piperidine-1-carboxylate]
IC50: 7.94 nM

CC(C)CC(CC1CCN(C(=O)OC(C)(C)C)CC1)NC(=O)c1ccc(Br)cc1 (stereo not drawn) [Example 27, tert-butyl 4-(2-(4-bromobenzamido)-4-methylpentyl)piperidine-1-carboxylate]
IC50: 10 nM
